Assay results as given in patent publication US20220339135A1, “COMPOSITIONS AND METHODS FOR MODULATING AN INFLAMMATORY RESPONSE” (Enzychem Lifesciences Corporation, priority 2019, published 2022).

Columns and labels:
[1] = test system: intracellular ROS in Raw264.7 cells; experiment: LPS-induced intracellular ROS production (CM-H2DCFDA); format: cell-based; settings: LPS/PLAG treatment
Description: Raw264.7 cells were divided into two groups: 1) LPS treated group and 2) LPS/PLAG treated group. For LPS treated group, cells were stimulated with LPS (100 ng/ml) for 0, 15, 30, 45, 60, 75, 90, 105, 120 minutes. For LPS/PLAG treatment, cells were pre-incubated with PLAG (100 ng/ml) for 1 hour and then stimulated with LPS (100 ng/ml) for 0, 15, 30, 45, 60, 75, 90, 105, 120 minutes. To detect intracellular ROS, cells were treated with […]CM-H2DCFDA (Invitrogen, Carlsbad, Calif., USA) for 30 minutes before LPS treatment for LPS treated group and before PLAG treatment for LPS/PLAG treated group. For confocal microscopy analysis, cells were washed with PBS and mounted in DAPI-containing fluorescence microscopy mounting medium (Invitrogen). Samples were analyzed with a laser scanning confocal microscope (Carl Zeiss, Oberkochen, Germany).
Raw264.7 cells were divided into two groups: 1) LPS treated group and 2) LPS/PLAG treated group. For the LPS treated group, cells were treated with 100 μg/ml of DMSO (as solvent control) for 1 hour and treated with LPS (100 ng/ml) for 15, 30, 60, and 120 minutes. For LPS/PLAG treated group, cells were treated with PLAG (100 μg/ml) for 1 hour and treated with LPS (100 ng/ml) for 15, 30, 60, and 120 minutes. […] These were analyzed by confocal microscopy. […]

[2] = test system: ERK, JNK, p38MAPK in differentiated HaCaT cells; experiment: IMQ-induced MAPK phosphorylation, western blot; format: cell-based; settings: PLAG 1, 10, 100 μg/ml, dose-dependent
Description: Differentiated HaCaT cells were divided into three groups: 1) control (non-treated) group, 2) IMQ treated group, and 3) IMQ/PLAG treated group. For IMQ treated group, cells were stimulated with IMQ (5 μg/ml) for 0, 20, 60 minutes. For IMQ/PLAG treated group, cells were pre-incubated with PLAG (1, 10, 100 μg/ml) for 1 hour and then stimulated with IMQ (5 μg/ml) for an hour. Then, cells were harvested. Cells were ruptured with 1×RIPA lysis buffer (Cell Signaling Technology) containing the protease inhibitor (Roche, Indianapolis, Ind., USA), and phosphatase inhibitor (Thermo Fisher Scientific Inc.) on ice. The cell lysates were then clarified by centrifugation and samples were analyzed on polyacrylamide gels. Each sample was separated by sodium dodecyl sulfate-polyacrylamide gel electrophoresis (SDS-PAGE) on polyacrylamide gels and the proteins were blotted onto a PVDF membrane (Bio-Rad). The membrane was blocked with 5% BSA (Gibco) in PBS containing 0.05% Tween-20 (Merck Millipore, Billerica, Mass., USA). The membrane was incubated with antibodies against phosphor-ERK (Thr202/Tyr204), ERK, phosphor-JNK (Thr183/Tyr185), SAPK/JNK, phosphor-p38MAPK (Thr180/thr182), and p38MAPK, overnight at 4° C. All antibodies were purchased from Cell signaling technology. Target proteins were detected with Immobilon Western Chemiluminescent HRP Substrate (Merck Millipore).

[3] = test system: radiation-induced lung injury; experiment: Radiation-induced lung injury in mice; format: in vivo
Description: Balb/c mice were grouped into four groups: 1) control group, 2) radiation group, 3) radiation+EC-18 50 mg/kg of PLAG, and 4) radiation+EC-18 250 mg/kg of PLAG. Lung was extracted at day 3 after 6.11Gy of TBI by γ-ray (FIG. 37A). EC-18 was treated daily. Tissue was fixed with formaldehyde, and H&E staining was carried out.

[4] = Whole-body autoradiography after single oral [14C] PLAG; format: in vivo, rats; settings: 200 mg/kg oral
Description: Tissue distribution of the PLAG after single oral administration of [^14C] PLAG was conducted in Biotoxtech (Korea) using whole-body autoradiography. Crl:CD (SD) strain albino rats received the single oral administration of [^14C] PLAG at a dose of 200 mg/kg and the animals were sacrificed by CO2 asphyxiation at defined times, and whole body autoradiograms were prepared to investigate the tissue distribution of radioactivity and its time course. Sampling time points are 15 minutes, 1 hour, 8 hours, and 24 hours after administration. The carcass was sliced into 40 micro meter-thick coronal plane sections that were collected on adhesive tape (NA-70, Nakagawa). The freeze-dried sections covered with a protective membrane were placed in contact with imaging plate (BAS-SR2025, Fuji Photo Film) and the plates were exposed in lead-sealed boxes at room temperature for 24 hours. After exposure, the radioactivity recorded on the imaging plate was analyzed using a bio-imaging analyzer system.

[5] = test system: gemcitabine-induced neutropenia; settings: cited from earlier work

SMILES: CCCCC/C=C\C/C=C\CCCCCCCC(=O)OC(COC(C)=O)COC(=O)CCCCCCCCCCCCCCC (racemic) [PLAG, 1-palmitoyl-2-linoleoyl-3-acetylglycerol]
- ROS production initiated [1]: 15 min
- return to homeostatic levels of intracellular ROS [1]: 60 min
- IMQ-induced phosphorylation of ERK, JNK, p38 MAPK [2]: attenuated
- pulmonary capillary leakage ([3]; 6.11Gy TBI, day 3, dose-dependently): less pulmonary capillary leakage
- leakage erythrocyte at the interstitial tissue ([3]; PLAG 50mpk and 250mpk): not observed
- radioactivity in stomach and intestinal tract incl. luminal contents ([4]; 15 minutes to 1 hour): high levels
- radioactivity in the liver and brown fat tissues ([4]; 8 hours): Moderate levels
- radioactivity in the luminal side of the stomach ([4]; 8 hours): high levels
- radioactivity in the liver ([4]; 24 hours): low levels
- radioactivity in other tissues ([4]; any sampling time point): not different from background level
- radioactivity in the liver ([4]; up to 1 hour): Low levels
- gemcitabine-induced neutropenia ([5]; Jeong et al., 2019): attenu¬ated the neutropenia
- anti-cancer effect of gemcitabine ([5]; athymic nude mice implanted with a human myeloma cell line): did not interfere
